Reference: ChEMBL document CHEMBL1201862, “PubChem BioAssay data set” (2004)
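A five-concentration, 48-hour dose response in 96-well plates underlies each endpoint, interpolated linearly between surrounding concentrations. Here, GI50 denotes the concentration required for 50% inhibition of growth.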 Activity calls are given as the source filed them. Cut-off read from the data, not from the text of the source: active = GI50 up to about 1.1 µM and inactive = higher.

Legend:
Test in all cases: NCI anticancer screen, dose series, 48 h
LOX IMVI = system: LOX IMVI
HOP-92 = system: HOP-92
UACC-62 = system: UACC-62
Hs-578T = system: Hs-578T
SK-MEL-28 = system: SK-MEL-28
T47D = system: T47D
MOLT-4 = system: MOLT-4
HCT-15 = system: HCT-15
SF-268 = system: SF-268
786-0 = system: 786-0
NCI-H460 = system: NCI-H460
OVCAR-5 = system: OVCAR-5
HCT-116 = system: HCT-116
U-251 = system: U-251
SN12C = system: SN12C
SR = system: SR
NCI-H226 = system: NCI-H226
CAKI-1 = system: CAKI-1
CCRF-CEM = system: CCRF-CEM

Measured: GI50

O=C(O)C1CC=CCC1C(=O)Nc1cccc(O)c1 (stereo unspecified)
> 100 µM: HCT-15
inactive: LOX IMVI > 100 µM | HOP-92 > 100 µM | UACC-62 > 100 µM | Hs-578T > 100 µM | SK-MEL-28 > 100 µM | T47D > 100 µM | MOLT-4 > 100 µM | SF-268 > 100 µM | 786-0 > 100 µM | NCI-H460 > 100 µM | OVCAR-5 > 100 µM | HCT-116 > 100 µM | U-251 > 100 µM | SN12C > 100 µM | SR > 100 µM | NCI-H226 > 100 µM | CAKI-1 > 100 µM

Cc1ccc(O)c(-c2cc(-c3cccc(Br)c3)c(C#N)c(N)n2)c1
12.9 µM: HCT-15
inactive: LOX IMVI 16.3 µM | UACC-62 16.4 µM | Hs-578T 25.5 µM | T47D 17.7 µM | MOLT-4 20.1 µM | SF-268 26.4 µM | 786-0 34.4 µM | NCI-H460 19.6 µM | OVCAR-5 41.5 µM | HCT-116 20 µM | U-251 17.3 µM | SN12C 21.5 µM | SR 19.3 µM | NCI-H226 17.5 µM | CAKI-1 21.8 µM

COP(=O)(/C=C/c1cc(C(=O)OCc2ccccc2)n(S(=O)(=O)c2ccccc2)c1)OC
inactive: LOX IMVI > 100 µM | UACC-62 > 100 µM | CCRF-CEM > 100 µM | Hs-578T > 100 µM | SK-MEL-28 > 100 µM | T47D > 100 µM | MOLT-4 > 100 µM | SF-268 > 100 µM | 786-0 > 100 µM | NCI-H460 > 100 µM | OVCAR-5 > 100 µM | HCT-116 > 100 µM | U-251 > 100 µM | SN12C > 100 µM | SR > 10 µM | CAKI-1 > 100 µM
> 100 µM: HCT-15

CO/N=C(/C(=O)OC)c1ccccc1COc1cccc(C(F)(F)F)c1
inactive: LOX IMVI 22.9 µM | HOP-92 36.2 µM | UACC-62 18.2 µM | CCRF-CEM 16 µM | Hs-578T 25.8 µM | SK-MEL-28 78.7 µM | T47D 9.55 µM | MOLT-4 10.6 µM | SF-268 35.5 µM | 786-0 30.7 µM | NCI-H460 28.8 µM | OVCAR-5 76.2 µM | HCT-116 10.8 µM | U-251 36.4 µM | SN12C 43.9 µM | NCI-H226 29.4 µM | CAKI-1 12.1 µM
29.2 µM: HCT-15

COC(=O)[C@H](Cc1ccccc1)NC(=O)c1ccc(CNC(=O)/C=C/c2cccc(Oc3ccccc3)c2)cc1
inactive: HOP-92 5.31 µM | UACC-62 7.91 µM | CCRF-CEM 11 µM | Hs-578T 10.4 µM | SK-MEL-28 9.33 µM | T47D 56 µM | MOLT-4 9.71 µM | SF-268 14.6 µM | 786-0 17.3 µM | NCI-H460 24.9 µM | OVCAR-5 > 100 µM | HCT-116 37 µM | U-251 18.3 µM | SN12C 26.1 µM | SR 6.79 µM | NCI-H226 52.7 µM | CAKI-1 16.5 µM
6.24 µM: HCT-15

COc1ccc(N2C(=O)C3c4[nH]c5ccc(OC)cc5c4C4CCC(C(C)C)CC4C3C2=O)cc1 (stereo unspecified)
> 100 µM: HCT-15
inactive: LOX IMVI > 100 µM | HOP-92 > 54.2 µM | UACC-62 > 31.6 µM | CCRF-CEM 7.73 µM | Hs-578T 12.1 µM | SK-MEL-28 > 73.6 µM | T47D > 100 µM | MOLT-4 28.8 µM | SF-268 19.5 µM | 786-0 14.9 µM | NCI-H460 27.5 µM | OVCAR-5 > 100 µM | HCT-116 > 55.3 µM | U-251 26.4 µM | SN12C > 100 µM | NCI-H226 > 100 µM | CAKI-1 > 100 µM

O=C(Cn1c(C(=O)/C=C/c2ccc(Cl)cc2)nc2ccccc21)c1ccc(Cl)cc1
inactive: LOX IMVI 16 µM | HOP-92 34.3 µM | UACC-62 15.8 µM | CCRF-CEM 2.7 µM | Hs-578T 10.9 µM | SK-MEL-28 21.7 µM | T47D 28.6 µM | MOLT-4 2.26 µM | SF-268 23.3 µM | 786-0 20.6 µM | NCI-H460 10.9 µM | OVCAR-5 26.8 µM | HCT-116 10.9 µM | U-251 11.5 µM | SN12C 14.1 µM | SR 4.25 µM | NCI-H226 21.4 µM
15.3 µM: HCT-15

Cc1cccc2c(O)c3c(O)cc(O)cc3nc12
inactive: LOX IMVI > 10 µM | HOP-92 > 10 µM | UACC-62 > 10 µM | CCRF-CEM > 10 µM | Hs-578T > 10 µM | SK-MEL-28 > 10 µM | T47D > 10 µM | MOLT-4 > 10 µM | SF-268 > 10 µM | 786-0 > 10 µM | NCI-H460 > 10 µM | OVCAR-5 > 10 µM | HCT-116 > 10 µM | U-251 > 10 µM | SN12C > 10 µM | NCI-H226 > 10 µM | CAKI-1 > 10 µM
> 10 µM: HCT-15

O=C(C[C@H](NC(=O)OCc1ccccc1)C(=O)NC1Cc2ccccc2OC1=O)OCc1ccccc1 (stereo partly specified)
inactive: HOP-92 > 100 µM | UACC-62 > 10 µM | CCRF-CEM 17.4 µM | Hs-578T > 100 µM | SK-MEL-28 > 100 µM | T47D 94.8 µM | MOLT-4 > 100 µM | NCI-H460 41.6 µM | OVCAR-5 > 100 µM | HCT-116 29.2 µM | U-251 > 100 µM | SN12C 36.4 µM | SR > 100 µM | NCI-H226 > 100 µM | CAKI-1 70 µM
46 µM: HCT-15

COc1cccc(/C=C2\SC(=S)N(/C=C3\C(=O)Oc4ccccc4C3=O)C2=O)c1O
inactive: LOX IMVI 63.2 µM | UACC-62 53 µM | CCRF-CEM 38.7 µM | Hs-578T 25.5 µM | SK-MEL-28 40.4 µM | T47D 48.6 µM | MOLT-4 39.1 µM | SF-268 46.7 µM | 786-0 67.8 µM | NCI-H460 48.1 µM | OVCAR-5 > 100 µM | HCT-116 56.9 µM | U-251 31.5 µM | SN12C 56.4 µM | SR 30.6 µM | NCI-H226 > 100 µM | CAKI-1 81.1 µM
43.2 µM: HCT-15

CCOc1ncn(-c2ccc(NC(=S)Nc3cnccn3)cc2)n1
inactive: HOP-92 > 10 µM | UACC-62 > 10 µM | CCRF-CEM > 10 µM | Hs-578T > 10 µM | T47D > 10 µM | MOLT-4 > 10 µM | SF-268 > 10 µM | 786-0 > 10 µM | NCI-H460 > 10 µM | OVCAR-5 > 10 µM | U-251 > 10 µM | SN12C > 10 µM | SR > 10 µM | NCI-H226 > 10 µM
> 10 µM: HCT-15

CN(Cc1cnc2nc(N)nc(N)c2n1)c1ccc(C(=O)NC(CCC(=O)O)C(=O)O)cc1C(F)(F)F (stereo unspecified)
< 0.01 µM: HCT-15
active: LOX IMVI < 0.01 µM | UACC-62 < 0.01 µM | CCRF-CEM < 0.01 µM | MOLT-4 < 0.01 µM | SF-268 < 0.01 µM | NCI-H460 < 0.01 µM | OVCAR-5 < 0.01 µM | U-251 < 0.01 µM | SN12C < 0.01 µM | SR < 0.01 µM | CAKI-1 < 0.01 µM
inactive: HOP-92 > 100 µM | Hs-578T > 72.9 µM | SK-MEL-28 > 100 µM | T47D > 100 µM
